Measurements taken from patent US7482027B2, “Composition for the prevention or treatment of diseases associated with angiogenesis” (AngioLab, Inc., priority 2005, dated 2009).

System: HUVEC tube formation
Test: HUVEC tube formation inhibition assay
Format: cell-based, Human
Set-up: key to Tube formation inhibition: −: no inhibition of tube formation; +/−: rare inhibition of tube formation; +: light inhibition of tube formation and slight tube cleavage; ++: significant inhibition of tube formation and heavy tube cleavage; +++: no tube formation
Settings: 50 μg/ml; for Tube formation inhibition: TABLE 2, HUVEC on Matrigel, 18 hours; for Inhibition of HUVEC tube formation (in words): text summary of TABLES 1 and 2
Description: Human umbilical vein endothelial cells (HUVECs) were isolated from freshly obtained cords after cesarean section according to Grants' method (Grants D S et al., Cell, 58, pp 923-943, 1989). The isolated HUVECs were grown in culture media comprising M-199 (Gibco BRL, 31100-035), 10% FBS, 50 μg/ml ECGS (Endothelial cell growth supplement, Sigma E2795), and 50 μg/ml heparin (Sigma H3149).
HUVECs isolated in REFERENCE EXAMPLE 1 were cultured within passage 5, and then were divided into 20,000 to 50,000 cells per well of 48 well plate coated with, Matrigel (BD Biosciences, Bedford, Mass.). Crude extracts, non-polar solvent extracts, or fractions of C. officinale of EXAMPLES 1 to 4 were added to the above HUVEC culture well at the concentration of 50 μg/ml, respectively, and DMSO was added as a control. They were grown with culture media of the above REFERENCE EXAMPLE 1.
After HUVECs were further incubated at 37° C. for 18 hours, tube formation was observed using microscope. The results were summarized in TABLES 1 and 2 (−: no inhibition of tube formation, +/− rare inhibition of tube formation, +: light inhibition of tube formation and slight tube cleavage, ++: significant inhibition of tube formation and heavy tube cleavage, +++: no tube formation).

## CCCCC1OC(=O)c2c(O)cccc21 (single isomer, unassigned) [AS44-C-2-C-b-III, 3-butyl-7-hydroxyphthalide]
  Tube formation inhibition: +++
  Inhibition of HUVEC tube formation (in words): strongly inhibited HUVEC tube formation

## C=CC(O)C#CC#CC(O)C=C (single isomer, unassigned) [AS44-C-2-D-b-IV, 1,9-decadiene-4,6-diyne-3,8-diol]
  Tube formation inhibition: +++
  Inhibition of HUVEC tube formation (in words): strongly inhibited HUVEC tube formation
